Among the data in patent EP0411733A2, “11-Beta-aryle-gona-4,9-dien-3-ones” (SCHERING AKTIENGESELLSCHAFT, priority 1989, dated 1991) are Fertilitätshemmung rel. % and Fertilitätshemmung absol. values, retold here.

This assay relates to weibliche gravide Raten. Put plainly: abortive effect (inhibition of fertility) in pregnant rats, subcutaneous treatment. It is filed as in vivo. The note with it: Gesamtdosis 2 mg/Tier/4d, subkutan in Erdnußöl, 5. bis 8. Graviditätstag, Autopsie am 20. Graviditätstag; for Fertilitätshemmung absol.: N = 6. The source says:
Zur Kennzeichnung der antigestagenen Wirkung dient die tierexperimentell ermittelt abortive Wirkung der Substanzen. Zu diesem Zweck wurden weibliche gravide Raten (positiver Spermiennachweis = 1 Graviditätstag) im Gewicht zwischen 180 und 200 g am 5. bis 8. Graviditätstag mit der Testverbindung in Erdnußöl suspendiert subkutan behandelt. Nach Autopsie am 20. Graviditätstag wurden die Uterie untersucht. Dabei wurde die Anzahl der graviden Weibchen und die durchschnittliche Zahl der Feten pro gravides Tier festgestellt. Der Hemmeffekt wurde wie folgt berechnet: [formula]

In turn, `CO[C@@]12C[C@@H]1C[C@H]1[C@@H]3CCC4=CC(=O)CCC4=C3[C@@H](c3ccc(C(C)=O)cc3)C[C@@]12C` [11β-(4-Acetylphenyl)-17β-methoxy-16α,17α-methylen-estra-4,9-dien-3-on] returned a Fertilitätshemmung rel. % of 100% and a Fertilitätshemmung absol. of 6.

`COCC1(OC)CCC2C3CCC4=CC(=O)CCC4=C3C(c3ccc(C(C)=O)cc3)CC21C` (stereo not drawn) [11β-(4-Acetylphenyl)-17β-methoxy-17α-methoxymethyl-estra-4,9-dien-3-on] gave a Fertilitätshemmung rel. % of 100% and a Fertilitätshemmung absol. of 6.

Turning to `CC#CC1(OC)CCC2C3CCC4=CC(=O)CCC4=C3C(c3ccc(C(C)=O)cc3)CC21C` (stereo not drawn) [11β-(4-Acetylphenyl)-17β-methoxy-17α-propinyl-13-methyl-gona-4,9-dien-3-on], the Fertilitätshemmung rel. % is 100% and the Fertilitätshemmung absol. is 6.

For `CC#CC1(OC)CCC2C3CCC4=CC(=O)CCC4=C3C(c3ccc(N(C)C)cc3)CC21C` (stereo not drawn) [11β-(4-Dimethylaminophenyl)-17β-methoxy-17α-propinyl-13-methyl-gona-4,9-dien-3-on], the Fertilitätshemmung rel. % came out at 100% and the Fertilitätshemmung absol. was determined as 6.

In the case of `C#C[C@]1(OC)CC[C@H]2[C@@H]3CCC4=CC(=O)CCC4=C3[C@@H](c3ccc(C(C)=O)cc3)C[C@@]21C` [17β-Methoxy-17α-ethinyl-11β-acetylphenyl, 11β-(4-Acetylphenyl)-17α-ethinyl-17β-methoxy-13-methyl-gona-4,9-dien-3-on], the Fertilitätshemmung rel. % came to 100% and the Fertilitätshemmung absol. came out at 6.

The compound `CC#C[C@]1(O)CC[C@H]2[C@@H]3CCC4=CC(=O)CCC4=C3[C@@H](c3ccc(N(C)C)cc3)C[C@@]21C` [RU 486, 11β-(4-Dimethylaminophenyl)-17β-hydroxy-17α-(prop-1-inyl)-4,9-estradien-3-on, reference compound] came in with a Fertilitätshemmung rel. % of 80%.
